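Exposure lasted 48 hours, with cells grown in 96-well plates and compounds tested at five concentrations. GI50 = concentration required for 50% inhibition of growth. TGI is the concentration that stops growth completely.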
Columns and labels:
Test in all cases: growth of human tumour cells (NCI), 48 h
EKVX NSCLC = tested on: EKVX NSCLC
HT29 colon = tested on: HT29 colon
K-562 leukemia = tested on: K-562 leukemia
LOX IMVI melanoma = tested on: LOX IMVI melanoma
OVCAR-4 ovarian = tested on: OVCAR-4 ovarian
SK-OV-3 ovarian = tested on: SK-OV-3 ovarian
SN12C renal = tested on: SN12C renal
SNB-19 CNS = tested on: SNB-19 CNS
SNB-75 CNS = tested on: SNB-75 CNS
U251 CNS = tested on: U251 CNS

SMILES	GI50 (EKVX NSCLC)	TGI (EKVX NSCLC)	GI50 (HT29 colon)	TGI (HT29 colon)	GI50 (K-562 leukemia)	TGI (K-562 leukemia)	GI50 (LOX IMVI melanoma)	TGI (LOX IMVI melanoma)	GI50 (OVCAR-4 ovarian)	TGI (OVCAR-4 ovarian)	GI50 (SK-OV-3 ovarian) [µM]	TGI (SK-OV-3 ovarian) [µM]	GI50 (SN12C renal)	TGI (SN12C renal)	GI50 (SNB-19 CNS)	TGI (SNB-19 CNS)	GI50 (SNB-75 CNS)	TGI (SNB-75 CNS)	GI50 (U251 CNS)	TGI (U251 CNS)
COc1ccc(-c2ccc(-c3ccc(C(=N)N)o3)o2)cc1	2.79 µM	14.5 µM	0.484 µM	2.82 µM	0.487 µM	2.12 µM	1.46 µM	2.96 µM	2.22 µM	12.2 µM	5.63	18.7	2.02 µM	4.59 µM	1.99 µM	11.3 µM	1.47 µM	6.81 µM	1.74 µM	4.12 µM
O=C1c2ccccc2-c2c1c1ccccc1c(=O)n2CCCn1ccnc1	9.09 µM	> 100 µM	1.22 µM	6.27 µM	1.45 µM	4.64 µM	0.924 µM	4.33 µM	2.29 µM	> 100 µM	6.68	> 100	1.66 µM	4.31 µM	2.11 µM	> 100 µM	5.82 µM	93.4 µM	0.793 µM	6.83 µM
CCNC(=O)O[C@H]1CN[C@H](C#Cc2cc3ncnc(Nc4ccc(OCc5cccc(F)c5)c(Cl)c4)c3s2)C1	0.668 µM	> 14.8 µM	9.47 µM	> 25 µM	9.45 µM	> 25 µM	8.12 µM	> 25 µM	9.94 µM	> 25 µM	0.0299	> 25	5.71 µM	> 25 µM	16.2 µM	> 25 µM	4.76 µM	> 25 µM	9.24 µM	> 25 µM
Cc1cnc(C(=O)Nc2nc3ccc(S(=O)(=O)Nc4ccc(C5(C(F)(F)F)CC5)cc4)cc3[nH]2)cn1	0.701 µM	9.34 µM	0.364 µM	10.9 µM	0.216 µM	12.7 µM	0.539 µM	5.6 µM	2.07 µM	9.26 µM	1.57	22.7	0.519 µM	5.87 µM	0.553 µM	13.3 µM	0.183 µM	0.786 µM	0.57 µM	5.4 µM
OCC#Cc1ccccc1C#CCCCCCC#Cc1ccccc1C#CCO	21.3 µM	42.4 µM	21.6 µM	> 100 µM	22.4 µM	57.7 µM	19.3 µM	34.8 µM	41 µM	> 100 µM	31	> 100	19.2 µM	33.6 µM	34.8 µM	> 100 µM			20.9 µM	36 µM
CC12CCC(Br)C(C)(C)C1CC=C1C(=O)OCC1O2 (stereo unspecified)		47 µM		87.5 µM		> 100 µM		30.4 µM		42.3 µM		29.9		> 55.9 µM		> 50.4 µM		34.7 µM		23.2 µM
Oc1ccc2oc3ncc(Br)c(-c4ccccc4)c3c2c1	> 100 µM	> 100 µM	> 100 µM	> 100 µM	> 100 µM	> 100 µM	> 100 µM	> 100 µM			> 100	> 100							> 100 µM	> 100 µM
COc1ccccc1NC(=O)CC(=O)N/N=C/c1ccc(N(CCC#N)S(=O)(=O)c2ccccc2)cc1		> 100 µM		> 100 µM		> 100 µM		> 100 µM		> 100 µM						> 100 µM		> 100 µM		> 100 µM
COc1cccc(/C=N/C(/N=C/c2cccc(OC)c2O)c2cccc(OC)c2O)c1O		52 µM		> 100 µM		> 100 µM		58 µM				78.1		77.6 µM		> 100 µM		48.1 µM		80.1 µM
N#CC1CC2(CCN1C(=O)c1ccccc1)OCCO2 (stereo unspecified)		> 100 µM		> 100 µM		> 100 µM				> 100 µM		> 100		> 100 µM		> 100 µM		> 100 µM		> 100 µM
COc1cc(-c2nc(SCCC(C)C)nc(Nc3ccc(S(N)(=O)=O)cc3)c2C#N)cc(OC)c1OC	3.42 µM	> 100 µM	2.25 µM	5.13 µM	2.73 µM	> 100 µM	1.91 µM	4.41 µM	3.45 µM	> 100 µM			1.81 µM	3.51 µM	5.38 µM	> 100 µM	2.15 µM	54.2 µM	3.17 µM	> 100 µM
CSc1nc(SC)c2c(CO)c(Br)n(Cc3ccccc3)c2n1		> 100 µM		> 100 µM				> 100 µM		41.7 µM		37.6		> 100 µM		84.3 µM		29.9 µM		26.3 µM
COC(C)(C)C/C=C/C(C)=C/C=C/C(C)=C\C=C\C(C)=C\C=C\C=C(C)\C=C\C=C(C)\C=C\C=C(C)\C=C\CC(C)(C)OC	> 150 µg/mL	> 150 µg/mL	> 150 µg/mL	> 150 µg/mL	> 150 µg/mL	> 150 µg/mL	> 150 µg/mL	> 150 µg/mL	> 150 µg/mL	> 150 µg/mL			> 150 µg/mL	> 150 µg/mL	> 150 µg/mL	> 150 µg/mL	> 150 µg/mL	> 150 µg/mL	> 150 µg/mL	> 150 µg/mL
O=C(NC12CC3CC(CC(C3)C1)C2)C(=O)c1c[nH]c2ccccc12		32.2 µM		15 µM				25.8 µM		31.4 µM		29.5		30.4 µM		32.3 µM				26.7 µM
COC(=O)Nc1nc2ccc(Br)cc2[nH]1		> 100 µM		37.4 µM		> 100 µM		> 100 µM		> 100 µM		67.9		> 100 µM				> 100 µM		87 µM
COc1cc2c(cc1OC)C13CCN4CC5CCOC6CC(=O)N2C1C6C5CC43 (stereo unspecified)		> 100 µM		> 100 µM				> 100 µM		> 100 µM		> 100		> 100 µM		> 100 µM				> 100 µM

— PubChem BioAssay (NCI)
